Patent publication US5331094A, “Purified active somatostatin receptor” (American Cyanamid Company, priority 1992, dated 1994)
Values belong to the molecule of their own block, whether it stands above or below them. Bridge positions count the residues as written; N and C are the ends. Square brackets hold non-standard residues; d marks the D form. Peptide text beside a SMILES is read from it. * marks the point of attachment. Biotin = O=C1N[C@H]2[C@H](CS[C@H]2CCCCC(=O)*)N1; Tyr(3-I) = N[C@@H](Cc1ccc(O)c(I)c1)C(=O)O; Ahx = NCCCCCC(=O)O

Assays:
Design in all cases: species or system rat
SRIF receptor [1] = experiment: Competitive radioligand binding assay with [125I]Tyr11-S14 and GH4 C1 membranes; conditions: for IC50: vs [125I]Tyr11-S14, 20 ug GH4 C1 membrane protein, 100,000 cpm radioligand (FIG. 1B)
Method: (§1) 1. Standard Binding Assays--Binding assays are done in a binding buffer containing 50 mM HEPES (pH 7.4), 0.5% BSA and 5 mM MgCl2. The standard assay for [^125 I]SRIF analog binding to GH4 C1 membranes, done in 96 well microtiter plates (Dynataech Immulon II Removawell plates), is carried out as follows: 1. Radioligand is diluted in binding buffer+ PMSF/Baci to the desired cpm per vol. of 50 μl and then 50 μl aliquots are added to the wells. For non-specific binding samples, 5 μl of 40 μM cold S14 is also added per well. 2. Binding is initiated by adding 150 μl per well of membrane diluted to the desired concentration (10-30 ug membrane protein/well) in binding buffer+ PMSF/Baci. Plates are then covered with Linbro mylar plate sealers (Flow Labs) and placed on a Dynatech Microshaker II and binding is allowed to proceed at room temperature for 1-2 hours. Binding is stopped by centrifuging the plate for 15 minutes at 2,000×g. The supernatants are dumped off and membrane pellets washed once by addition of 200 μl of ice cold binding buffer, brief shaking and recentrifugation. Finally the individual wells are placed in 12×75 mm tubes and counted in an LKB Gammamaster counter (78% efficiency). Specific binding by this method is identical to that measured when free ligand is removed by rapid (3-5 seconds) filtration and washing on polyethyleneimine-coated glass fiber filters.
2. competitive radioligand binding assays with a concentration range of cold ligand vs. [^125 I]SRIF are carried out as described above with one modification. All dilutions of SRIF analogs being assayed are made in 40×PMSF/Baci to a concentration 40× the final concentration in the assay. This gives very consistent results with a wide variety of SRIF structural analogs over a wide range of dilutions. 5 ul samples of peptide are then added per microtiter well. Membranes and radioligand are diluted out in binding buffer without protease inhibitors. Radioligand is added and mixed with cold peptides and then binding is initiated by addition of membranes.
These assays are carried out as described in "Methods: Receptor Binding Methods, 2". […] Therefore the Bio-6C-S14, Bio-12C-S14 and Bio-S28analogs are preferably synthesized. In Bio-S28, amino acid residues 1-14 are considered a spacer since residues 15-28 are equivalent to an S14 analog, having all the necessary structure for high affinity binding. The three spacer-containing biotinyl SRIFs show receptor binding activity similar to that of S14 (FIG. 1B; assays contained 20 ug of GH 4 C1 membrane protein and 100,000 cpm of radioligand). The IC50 s and relative potencies are S14 (0.2 nM)>Bio-S28(0.3 nM) >Bio-6C-S14 (2 nM)>Bio-12C-S14 (2 nM).

SRIF receptor [2] = experiment: Lectin affinity binding (WGA-agarose) of solubilized receptor:[125I]Tyr11-S14 complex; conditions: for A/B, GFB/PEI filters: Recovery of soluble R:L complex
Method: 4. Larger scale binding assays to obtain membrane pellets for studies on solubilization of receptor: ligand complex and for receptor purification are also carried out. These are identical to the standard assays except that: (a) Binding is carried out in polypropylene tubes in volumes from 1-250 ml, (b) Concentration of membrane protein is always 0.5 mg/ml, (c) For receptor purification, BSA concentration in the binding buffer is reduced to 0.25% and the wash step is done with binding buffer without BSA. This is to reduce BSA contamination of the purified receptor.
H. Assay of Solubilized Receptors--After binding of [^125 I]SRIF analogs and solubilization of the membranes with detergent, the intact R:L complex could be assayed by four different methods (all carried out on ice or in a cold room at 4°-10° C.): (1) Column chromatography (Knuhtsen et al., Biochem. J. 254:641-647, 1988). Sephadex G-50 columns (8×250 mm) are equilibrated with solubilization buffer containing detergent at the concentration used to solubilize membranes and 1 mg/ml bovine serum albumin. 0.2-0.5 ml samples of solubilized membranes are applied to the columns and eluted at a flow rate of about 0.7 ml/minute. 0.18 ml samples are collected. Radioactivity is determined in a gamma counter as described under "Receptor Binding Methods". Void volumes of the columns are determined by the elution volume of blue dextran. Radioactivity eluting in the void volume (>50,000 MW) was considered bound to protein. Radioactivity eluting later, at the same volume as free [^125 I]SRIF, is considered non-bound. (2) Polyethyleneglycol precipitation (Cuatrecasas, PNAS USA 69:318-322, 1972) For a 100 ul sample of solubilized membranes in a 12×75 mm polypropylene tube, 0.5 ml of 1% (w/v) bovine gamma globulin (Sigma) in 0.1M sodium phosphate buffer is added, followed by 0.5 ml of 25% (w/v) polyethyleneglycol (Sigma) and mixing. The mixture is held on ice for 15 minutes. Then 3 ml of 0.1M sodium phosphate (pH 7.4) is added per sample and the samples are rapidly (1-3 seconds) filtered over Whatman GF/B glass fiber filters and washed with 4 ml of the phosphate buffer. PEG precipitated SRIF receptor:[^125 I]SRIF complex is determined by gamma counting of the filters. (3) GFB/PEI filter binding (Bruns et al., Analytical Biochem. 132:74-81, 1983). Whatman GF/B glass fiber filters are soaked in 0.3% polyethyleneimine (PEI, Sigma) for 3 hours. 25-100 ul samples of solubilized membranes are replaced in 12×75 mm polypropylene tubes. Then 4 ml of solubilization buffer (without detergent) is added per sample and the samples are immediately filtered through the GFB/PEI filters (1-3 seconds) and washed with 4 ml of solubilization buffer. CPM of SRIF receptor:[^125 I]SRIF complex adsorbed to filters are determined by gamma counting. (4) Charcoal/Dextran (Paul and Said, Peptides 7[Suppl. 1]:147-149, 1986). 0.5 gm of Dextran T70 (Pharmacia) is dissolved in 1 liter of water and then 5 gm of activated charcoal (Norit A, alkaline; Fisher Scientific) is added. The suspension is stirred for 10 minutes at room temperature and then stored at 4° C. until use. To measure R:L complex, 4 parts by volume of charcoal/dextran suspension are added to 1 part by volume of solubilized membrane. The samples are mixed and held on ice for 2 minutes and then centrifuged for 2 minutes at 11,000×g in a Beckman microfuge. Free radioligand is adsorbed charcoal/dextran and is discarded with the pellet. SRIF receptor:[^125 I]SRIF complex remain in the supernatant and is determined by gamma counting.
A. Solubilized Receptor: [^125 I]Tyr11-S14 Complex-Binding of [^125 I][…] to GH4 C1 membranes is carried out as in "Receptor Binding Methods. 4". Binding incubations contain 0.5 mg/ml membrane protein and 6×10^6 cpm/ml of [^125 I]Tyr11-S14. Solubilization of membranes in 0.15% deoxycholate:lysolecithin is also as previous described. […]

SRIF receptor [3] = experiment: Scatchard analysis of binding of [125I]-labelled SRIF analogs to GH4 C1 membranes; conditions: GH4 C1 membranes (FIG. 2), read-out: dissociation constant (KD)
Method: as §1
Because Bio-C6-S14, Bio-C12-S14 and Bio-S28 all contain tyrosine residues, it is possible to prepare their [^125 I] labelled analogs and carry out Scatchard analyses of their binding affinities relative to [^125 I]Tyr11-S14 (FIG. 2). As shown in the figure, the [^125 I]-labelled peptides fall in the same order of potency as their non-labelled forms. The dissociation constants (KDs) and relative binding affinities are [^125 I]Tyr11-S14 (0.1 nM)>[^125 I]Bio-S28 (0.2 nM)>[^125I]Bio-6C-S14 (0.3 nM)>[^125 I]Bio-12C-S14 (0.4 nM).

[4] = Sample: 100,000 x g supernatant
[5] = Sample: Eluted from WGA-agarose
[6] = Sample: Non-bound to WGA-agarose

IC50 (SRIF receptor [1]): 0.3 nM
Molecule: CC(C)C[C@H](NC(=O)[C@H](C)NC(=O)[C@@H]1CCCN1C(=O)[C@H](CC(N)=O)NC(=O)[C@H](CO)NC(=O)[C@H](CC(N)=O)NC(=O)[C@H](C)NC(=O)[C@H](CO)NC(=O)CCCC[C@@H]1SC[C@@H]2NC(=O)N[C@@H]21)C(=O)N[C@@H](C)C(=O)N1CCC[C@H]1C(=O)N[C@@H](CCCNC(=N)N)C(=O)N[C@@H](CCC(=O)O)C(=O)N[C@@H](CCCNC(=N)N)C(=O)N[C@@H](CCCCN)C(=O)N[C@@H](C)C(=O)NCC(=O)N[C@H]1CSSC[C@@H](C(=O)O)NC(=O)[C@H](CO)NC(=O)[C@H]([C@@H](C)O)NC(=O)[C@H](Cc2ccc(O)cc2)NC(=O)[C@H]([C@@H](C)O)NC(=O)[C@H](CCCCN)NC(=O)[C@@H](Cc2c[nH]c3ccccc23)NC(=O)[C@H](Cc2ccccc2)NC(=O)[C@H](Cc2ccccc2)NC(=O)[C@H](CC(N)=O)NC(=O)[C@H](CCCCN)NC1=O [Bio-S28, Biotinyl-NH-(Leu8, D-Trp22, Tyr25)SRIF28] (Biotin-SANSNPALAPRERKAGCKNFF[dW]KTYTSC-OH; disulfide 17-28 (inferred); C-terminus assumed)

Molecule: Biotinyl-NH-SRIF14 [Biotinyl-NH-S14]
potency relative to S14 in the competitive binding assay (SRIF receptor [1]; FIG. 1A, 40 ug GH4 C1 membrane protein, 85,000 cpm radioligand): about 1.5%

A/B, GFB/PEI filters (SRIF receptor [2]; 100,000 x g supernatant): 11.3
A/B, GFB/PEI filters (SRIF receptor [2]; Eluted from WGA-agarose): 33.7
A/B, GFB/PEI filters (SRIF receptor [2]; Non-bound to WGA-agarose): 2.9
A/B (total/non-specific) (SRIF receptor [2]; [4]): 8.2
CPM of [125I]Tyr11-S14, A. Total (SRIF receptor [2]; [4]): 104,420 CPM
CPM of [125I]Tyr11-S14, B. Non-Specific (SRIF receptor [2]; [4]): 12,756 CPM
A/B (total/non-specific) (SRIF receptor [2]; Sample: Bound to WGA-agarose): 22.1
CPM of [125I]Tyr11-S14, A. Total (SRIF receptor [2]; Sample: Bound to WGA-agarose): 69,889 CPM
CPM of [125I]Tyr11-S14, B. Non-Specific (SRIF receptor [2]; Sample: Bound to WGA-agarose): 3,157 CPM
A/B (total/non-specific) (SRIF receptor [2]; [5]): 23.0
CPM of [125I]Tyr11-S14, A. Total (SRIF receptor [2]; [5]): 58,925 CPM
CPM of [125I]Tyr11-S14, B. Non-Specific (SRIF receptor [2]; [5]): 2,524 CPM
A/B (total/non-specific) (SRIF receptor [2]; Sample: Membranes): 5.3
CPM of [125I]Tyr11-S14, A. Total (SRIF receptor [2]; Sample: Membranes): 151,848 CPM
CPM of [125I]Tyr11-S14, B. Non-Specific (SRIF receptor [2]; Sample: Membranes): 28,812 CPM
A/B (total/non-specific) (SRIF receptor [2]; [6]): 2.4
CPM of [125I]Tyr11-S14, A. Total (SRIF receptor [2]; [6]): 23,112 CPM
CPM of [125I]Tyr11-S14, B. Non-Specific (SRIF receptor [2]; [6]): 9,624 CPM
Kd (SRIF receptor [3]): 0.1 nM
Molecule: C[C@H](N)C(=O)NCC(=O)N[C@H]1CSSC[C@@H](C(=O)O)NC(=O)[C@H](CO)NC(=O)[C@H]([C@@H](C)O)NC(=O)[C@H](Cc2ccc(O)c(I)c2)NC(=O)[C@H]([C@@H](C)O)NC(=O)[C@H](CCCCN)NC(=O)[C@H](Cc2c[nH]c3ccccc23)NC(=O)[C@H](Cc2ccccc2)NC(=O)[C@H](Cc2ccccc2)NC(=O)[C@H](CC(N)=O)NC(=O)[C@H](CCCCN)NC1=O [[^125 I]Tyr11-S14] (H-AGCKNFFWKT[Tyr(3-I)]TSC-OH; disulfide 3-14 (inferred); N-terminus and C-terminus assumed)

Molecule: C[C@H](NC(=O)CCCCCNC(=O)CCCCCNC(=O)CCCC[C@@H]1SC[C@@H]2NC(=O)N[C@@H]21)C(=O)NCC(=O)N[C@H]1CSSC[C@@H](C(=O)O)NC(=O)[C@H](CO)NC(=O)[C@H]([C@@H](C)O)NC(=O)[C@H](Cc2ccc(O)cc2)NC(=O)[C@H]([C@@H](C)O)NC(=O)[C@H](CCCCN)NC(=O)[C@H](Cc2c[nH]c3ccccc23)NC(=O)[C@H](Cc2ccccc2)NC(=O)[C@H](Cc2ccccc2)NC(=O)[C@H](CC(N)=O)NC(=O)[C@H](CCCCN)NC1=O [Bio-12C-S14, Biotinyl-[NH-(CH2)5 -CO]2 -NH-(Tyr11)SRIF14] ({Biotin-Ahx-Ahx}-AGCKNFFWKTYTSC-OH; disulfide 3-14 (inferred); C-terminus assumed)
IC50 (SRIF receptor [1]): 2 nM

Molecule: C[C@H](N)C(=O)NCC(=O)N[C@H]1CSSC[C@@H](C(=O)O)NC(=O)[C@H](CO)NC(=O)[C@H]([C@@H](C)O)NC(=O)[C@H](Cc2ccccc2)NC(=O)[C@H]([C@@H](C)O)NC(=O)[C@H](CCCCN)NC(=O)[C@H](Cc2c[nH]c3ccccc23)NC(=O)[C@H](Cc2ccccc2)NC(=O)[C@H](Cc2ccccc2)NC(=O)[C@H](CC(N)=O)NC(=O)[C@H](CCCCN)NC1=O [S14, reference compound]
IC50 (SRIF receptor [1]): 0.2 nM

IC50 (SRIF receptor [1]): 2 nM
Molecule: C[C@H](NC(=O)CCCCCNC(=O)CCCC[C@@H]1SC[C@@H]2NC(=O)N[C@@H]21)C(=O)NCC(=O)N[C@H]1CSSC[C@@H](C(=O)O)NC(=O)[C@H](CO)NC(=O)[C@H]([C@@H](C)O)NC(=O)[C@H](Cc2ccc(O)cc2)NC(=O)[C@H]([C@@H](C)O)NC(=O)[C@H](CCCCN)NC(=O)[C@H](Cc2c[nH]c3ccccc23)NC(=O)[C@H](Cc2ccccc2)NC(=O)[C@H](Cc2ccccc2)NC(=O)[C@H](CC(N)=O)NC(=O)[C@H](CCCCN)NC1=O [Bio-6C-S14, Biotinyl-[NH--(CH2)5 --CO]--NH-(Tyr11)SRIF14] ({Biotin-Ahx}-AGCKNFFWKTYTSC-OH; disulfide 3-14)
